Experimental data published in US8633313B2, “Heterocyclic compounds and their uses” (Amgen Inc., priority 2009, dated 2014).

Experiments:
PI3K delta = target: T1, PI3K delta (Homo sapiens, UniProt O00329); assay: In vitro enzyme assay, PI3K delta biochemical potency; conditions: comparison of the two separated enantiomers
T1 construct: Full length p110 subunits of PI3k α, β and δ, N-terminally labeled with polyHis tag; polyHis (N); made in house; host or cells: Sf9 insect cells (baculovirus)
Protocol: Full length p110 subunits of PI3k α, β and δ, N-terminally labeled with polyHis tag, were coexpressed with p85 with Baculo virus expression vectors in sf9 insect cells. P110/p85 heterodimers were purified by sequential Ni-NTA, Q-HP, Superdex-100 chromatography. Purified α, β and δ isozymes were stored at −20° C. in 20 mM Tris, pH 8, 0.2M NaCl, 50% glycerol, 5 mM DTT, 2 mM Na cholate. Truncated PI3Kγ, residues 114-1102, N-terminally labeled with polyHis tag, was expressed with Baculo virus in Hi5 insect cells. The γ isozyme was purified by sequential Ni-NTA, Superdex-200, Q-HP chromatography. The γ isozyme was stored frozen at −80° C. in NaH2PO4, pH 8, 0.2M NaCl, 1% ethylene glycol, 2 mM β-mercaptoethanol.
Assays were performed in 25 μL with the above final concentrations of components in white polyproplyene plates (Costar 3355). Phospatidyl inositol phosphoacceptor, PtdIns(4,5)P2 P4508, was from Echelon Biosciences. The ATPase activity of the alpha and gamma isozymes was not greatly stimulated by PtdIns(4,5)P2 under these conditions and was therefore omitted from the assay of these isozymes. Test compounds were dissolved in dimethyl sulfoxide and diluted with three-fold serial dilutions. The compound in DMSO (1 μL) was added per test well, and the inhibition relative to reactions containing no compound, with and without enzyme was determined. After assay incubation at rt, the reaction was stopped and residual ATP determined by addition of an equal volume of a commercial ATP bioluminescence kit (Perkin Elmer EasyLite) according to the manufacturer's instructions, and detected using a AnalystGT luminometer.

[1] = system: rheumatoid arthritis model; conditions: in vivo; cited from earlier work
[2] = system: systemic lupus erythematosis model; conditions: in vivo; cited from earlier work
p110δ = target: T2, p110δ (Homo sapiens, UniProt O00329); conditions: cited from earlier work
T2 sequence (O00329 1-1044): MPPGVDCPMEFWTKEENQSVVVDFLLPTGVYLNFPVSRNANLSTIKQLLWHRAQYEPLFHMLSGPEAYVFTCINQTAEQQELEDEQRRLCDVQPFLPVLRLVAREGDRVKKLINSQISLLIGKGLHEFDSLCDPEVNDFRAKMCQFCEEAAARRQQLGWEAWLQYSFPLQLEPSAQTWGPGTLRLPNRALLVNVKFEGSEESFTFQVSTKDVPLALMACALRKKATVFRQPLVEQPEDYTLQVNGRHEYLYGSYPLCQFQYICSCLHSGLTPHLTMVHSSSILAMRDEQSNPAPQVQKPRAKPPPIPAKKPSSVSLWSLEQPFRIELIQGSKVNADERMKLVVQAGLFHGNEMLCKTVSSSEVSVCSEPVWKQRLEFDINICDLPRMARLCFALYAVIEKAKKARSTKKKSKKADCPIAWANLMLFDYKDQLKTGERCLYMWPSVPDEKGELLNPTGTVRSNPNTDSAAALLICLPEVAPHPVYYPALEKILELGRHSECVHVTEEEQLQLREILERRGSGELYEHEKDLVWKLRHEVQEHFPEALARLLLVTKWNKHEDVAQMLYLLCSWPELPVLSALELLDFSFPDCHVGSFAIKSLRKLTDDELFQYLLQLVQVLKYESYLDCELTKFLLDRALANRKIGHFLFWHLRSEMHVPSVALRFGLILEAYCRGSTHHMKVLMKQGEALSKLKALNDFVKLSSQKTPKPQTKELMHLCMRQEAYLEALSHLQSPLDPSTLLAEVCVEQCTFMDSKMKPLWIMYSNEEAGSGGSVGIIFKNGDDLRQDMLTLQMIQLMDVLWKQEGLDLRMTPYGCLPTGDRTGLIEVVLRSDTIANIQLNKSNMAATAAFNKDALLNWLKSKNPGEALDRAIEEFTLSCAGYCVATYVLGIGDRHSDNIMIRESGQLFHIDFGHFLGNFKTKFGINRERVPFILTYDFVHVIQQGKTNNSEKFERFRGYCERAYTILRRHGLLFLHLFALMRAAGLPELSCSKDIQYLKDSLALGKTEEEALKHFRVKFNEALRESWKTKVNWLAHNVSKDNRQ

protein kinases = conditions: cited from earlier work
[3] = system: ovalbumin-induced airway inflammation; conditions: cited from earlier work

T1 sequence (P27986 whole entry partner, one chain of several): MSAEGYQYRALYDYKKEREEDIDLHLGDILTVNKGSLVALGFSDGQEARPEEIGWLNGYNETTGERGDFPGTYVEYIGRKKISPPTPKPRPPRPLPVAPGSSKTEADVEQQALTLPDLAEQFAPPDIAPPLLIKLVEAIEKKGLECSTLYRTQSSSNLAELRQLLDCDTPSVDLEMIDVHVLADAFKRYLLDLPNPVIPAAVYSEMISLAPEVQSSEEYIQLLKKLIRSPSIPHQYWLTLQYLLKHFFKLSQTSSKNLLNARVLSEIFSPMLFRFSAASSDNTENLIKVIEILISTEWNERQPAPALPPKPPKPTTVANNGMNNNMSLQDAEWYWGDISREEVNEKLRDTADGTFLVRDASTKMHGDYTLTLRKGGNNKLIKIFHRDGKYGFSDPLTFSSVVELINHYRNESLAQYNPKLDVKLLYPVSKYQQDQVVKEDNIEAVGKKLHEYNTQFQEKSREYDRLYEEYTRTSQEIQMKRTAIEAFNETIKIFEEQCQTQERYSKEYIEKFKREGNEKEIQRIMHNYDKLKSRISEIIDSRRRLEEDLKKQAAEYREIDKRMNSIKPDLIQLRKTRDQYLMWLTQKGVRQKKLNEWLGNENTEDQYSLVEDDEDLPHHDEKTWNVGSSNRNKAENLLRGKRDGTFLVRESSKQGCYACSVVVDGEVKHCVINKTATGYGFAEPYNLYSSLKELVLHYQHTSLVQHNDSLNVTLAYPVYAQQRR

SMILES: C[C@@H](Nc1ncnc(N)c1C#N)c1cc2ncccc2nc1-c1ccccc1F (single isomer, unassigned; isomer 4) [Example 2 R-isomer]
- PI3K delta biochemical potency, one isomer relative to the other (PI3K delta): less potent

SMILES: O=C1NC(=O)/C(=C\c2ccc3nccnc3c2)S1 [AS 605240]
- efficacy in a mouse model of rheumatoid arthritis [1]: efficacious
- onset of disease in a model of systemic lupus erythematosis [2]: delay onset of disease

SMILES: C[C@H](Nc1ncnc(N)c1C#N)c1cc2ncccc2nc1-c1cc(F)cc(F)c1 (single isomer, unassigned; isomer 4) [Example 3 S-isomer]
- PI3K delta biochemical potency, one isomer relative to the other (PI3K delta): more potent

SMILES: Cc1ccccc1-n1c(Cn2cnc3c(N)ncnc32)nc2cccc(C)c2c1=O [IC87114]
- inhibition of p110δ (p110δ): high nanomolar range (triple digit)
- activity against any protein kinases tested (protein kinases): no activity
- inflammation and disease in a murine model of asthma [3]: significantly ameliorate inflammation and disease

SMILES: C[C@H](Nc1ncnc(N)c1C#N)c1cc2ncccc2nc1-c1ccccc1F (single isomer, unassigned; isomer 4) [Example 2 S-isomer]
- PI3K delta biochemical potency, one isomer relative to the other (PI3K delta): more potent

SMILES: C[C@@H](Nc1ncnc(N)c1C#N)c1cc2ncccc2nc1-c1cc(F)cc(F)c1 (single isomer, unassigned; isomer 4) [Example 3 R-isomer]
- PI3K delta biochemical potency, one isomer relative to the other (PI3K delta): less potent

SMILES: C[C@@H](Nc1ncnc(N)c1C#N)c1nc2cccnc2cc1-c1ccccc1 (single isomer, unassigned; isomer 4) [Example 4 R-isomer]
- PI3K delta biochemical potency, one isomer relative to the other (PI3K delta): less potent

SMILES: C[C@H](Nc1ncnc(N)c1C#N)c1nc2cccnc2cc1-c1ccccc1 (single isomer, unassigned; isomer 4) [Example 4 S-isomer]
- PI3K delta biochemical potency, one isomer relative to the other (PI3K delta): more potent
